Assay results taken from patent US9260408B2, “Dihydroquinoline-2-one derivatives” (Hoffmann-La Roche Inc., priority 2011, dated 2016).

Legend:
human CYP11B1 = target: T1, human CYP11B1 (Homo sapiens, UniProt P15538); assay: G-402 cellular enzyme assay, human CYP11B1 (cortisol release, HTRF); type: cell-based; details: G-402 cells expressing human CYP11B1; 1 μM Deoxycortisol
T1 construct: expressed in transfected cells
T1 sequence (P15538 25-503): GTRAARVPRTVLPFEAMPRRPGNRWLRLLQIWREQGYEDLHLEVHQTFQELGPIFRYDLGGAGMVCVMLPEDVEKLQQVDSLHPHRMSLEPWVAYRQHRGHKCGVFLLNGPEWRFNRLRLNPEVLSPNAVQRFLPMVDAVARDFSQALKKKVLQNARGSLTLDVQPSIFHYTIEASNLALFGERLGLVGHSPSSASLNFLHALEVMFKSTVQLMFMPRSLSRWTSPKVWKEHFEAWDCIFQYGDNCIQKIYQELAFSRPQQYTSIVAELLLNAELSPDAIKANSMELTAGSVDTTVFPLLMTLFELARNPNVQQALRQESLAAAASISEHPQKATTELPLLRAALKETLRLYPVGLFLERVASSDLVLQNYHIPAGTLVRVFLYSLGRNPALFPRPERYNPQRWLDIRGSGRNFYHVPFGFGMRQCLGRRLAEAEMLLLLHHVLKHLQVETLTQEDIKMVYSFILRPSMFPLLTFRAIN
Procedure, shortened: (§1)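 G-402 cells stably expressing human CYP11B2 or CYP11B1, in DMEM/F12 with 2.5% charcoal-treated FCS, were incubated 16 h with compound plus 1 μM deoxycorticosterone (CYP11B2) or 1 μM deoxycortisol (CYP11B1). Aldosterone or cortisol in the supernatant measured by HTRF; EC50 from a 4-parameter MMF fit.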

human CYP11B2 = target: T2, human CYP11B2 (Homo sapiens, UniProt P19099); assay: G-402 cellular enzyme assay, human CYP11B2 (aldosterone release, HTRF); type: cell-based; details: G-402 cells expressing human CYP11B2; 1 μM Deoxycorticosterone
T2 construct: expressed in transfected cells
T2 sequence (P19099 25-503): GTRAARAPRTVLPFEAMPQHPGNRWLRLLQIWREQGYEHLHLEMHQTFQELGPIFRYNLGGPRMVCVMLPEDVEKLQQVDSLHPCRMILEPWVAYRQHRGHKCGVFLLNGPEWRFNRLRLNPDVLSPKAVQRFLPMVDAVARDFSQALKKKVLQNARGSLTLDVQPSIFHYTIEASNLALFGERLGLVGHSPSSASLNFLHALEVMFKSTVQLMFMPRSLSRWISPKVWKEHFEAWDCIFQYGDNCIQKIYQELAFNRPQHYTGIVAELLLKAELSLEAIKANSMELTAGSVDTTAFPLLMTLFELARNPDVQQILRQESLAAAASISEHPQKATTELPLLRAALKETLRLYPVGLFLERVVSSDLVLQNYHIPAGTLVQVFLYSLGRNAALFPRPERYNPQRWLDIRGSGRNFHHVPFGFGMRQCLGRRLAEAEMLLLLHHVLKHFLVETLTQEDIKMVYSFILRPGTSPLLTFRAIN
Procedure, shortened: as §1

SMILES | EC50 (human CYP11B1) [nM] | EC50 (human CYP11B2) [nM]
CN1C(=O)CCc2cc(-c3cncc(CN4C(=O)CC[C@H]4CO)c3)ccc21 [Example 8, 6-[5-((S)-2-Hydroxymethyl-5-oxo-pyrrolidin-1-ylmethyl)-pyridin-3-yl]-1-methyl-3,4-dihydro-1H-quinolin-2-one] | 2330 | 49
CN1C(=O)CCc2cc(-c3cncc(CNC(=O)c4cnc(Cl)cn4)c3)ccc21 [Example 125] | 154 | 3
Cc1oncc1C(=O)NCc1cncc(-c2cc3c(cc2F)N(C)C(=O)CC3)c1C [Example 259, 5-Methyl-isoxazole-4-carboxylic acid [5-(7-fluoro-1-methyl-2-oxo-1,2,3,4-tetrahydro-quinolin-6-yl)-4-methyl-pyridin-3-ylmethyl]-amide] | 154 | 1
CCS(=O)(=O)N1CC[C@@H](Oc2cncc(-c3cc4c(cc3F)N(C)C(=O)CC4)c2)C1 [Example 168, 6-[5-((R)-1-Ethanesulfonyl-pyrrolidin-3-yloxy)-pyridin-3-yl]-7-fluoro-1-methyl-3,4-dihydro-1H-quinolin-2-one] | 273 | 14
Cc1c(-c2cc3c(cc2F)N(C)C(=O)CC3)cncc1C(C)NC(=O)c1ncccc1Cl (single isomer, unassigned) [Example 258, 3-Chloro-pyridine-2-carboxylic acid {(R or S)-1-[5-(7-fluoro-1-methyl-2-oxo-1,2,3,4-tetrahydro-quinolin-6-yl)-4-methyl-pyridin-3-yl]ethyl}-amide] | 291 | 13
CCN(Cc1cncc(-c2ccc3c(c2)CCC(=O)N3C)c1)S(=O)(=O)CC [Example 181, Ethanesulfonic acid ethyl-[5-(1-methyl-2-oxo-1,2,3,4-tetrahydro-quinolin-6-yl)-pyridin-3-ylmethyl]-amide] | 2320 | 25
CN1C(=O)CCc2cc(-c3cncc(C4=CCN(C(=O)OC(C)(C)C)CC4)c3)ccc21 [Example 247, 5-(1-Methyl-2-oxo-1,2,3,4-tetrahydro-quinolin-6-yl)-3′,6′-dihydro-2′H-[3,4′]bipyridinyl-1′-carboxylic acid tert-butyl ester] | 69 | 5
Cc1noc(C)c1C(=O)NCc1cncc(-c2cc3c(cc2F)N(C)C(=O)CC3)c1C [Example 246, 3,5-Dimethyl-isoxazole-4-carboxylic acid [5-(7-fluoro-1-methyl-2-oxo-1,2,3,4-tetrahydro-quinolin-6-yl)-4-methyl-pyridin-3-ylmethyl]-amide] | 4720 | 13
Cc1noc(C)c1C(=O)NCc1cncc(-c2ccc3c(c2)CCC(=O)N3C)c1Cl [Example 219, 3,5-Dimethyl-isoxazole-4-carboxylic acid [4-chloro-5-(1-methyl-2-oxo-1,2,3,4-tetrahydro-quinolin-6-yl)-pyridin-3-ylmethyl]-amide] | 557 | 12
CN1C(=O)CCc2cc(-c3cncc(O[C@@H]4CCN(C(=O)OC(C)(C)C)C4)c3)ccc21 [Example 53, (R)-3-[5-(1-Methyl-2-oxo-1,2,3,4-tetrahydro-quinolin-6-yl)-pyridin-3-yloxy]-pyrrolidine-1-carboxylic acid tert-butyl ester] | 453 | 8
CCC(=O)NCc1cncc(-c2cc3c(cc2F)N(C)C(=O)CC3)c1 [Example 212, N-[5-(7-Fluoro-1-methyl-2-oxo-1,2,3,4-tetrahydro-quinolin-6-yl)-pyridin-3-ylmethyl]-propionamide] | 4830 | 51
CCS(=O)(=O)NCc1cncc(-c2ccc3c(c2)CCC(=O)N3C)c1Cl [Example 193, Ethanesulfonic acid [4-chloro-5-(1-methyl-2-oxo-1,2,3,4-tetrahydro-quinolin-6-yl)-pyridin-3-ylmethyl]-amide] | 1010 | 22
